Results: patent US20260125378A2, “Heterocyclic Compounds” (BeOne Medicines I GmbH, priority 2023, published 2026)

Tests used:
[1] = molecular target: T1, Full length DGKζ (in-house protein M1-V929) (Homo sapiens, UniProt Q13574); assay: Biochemical DGK IC50 assay (ADP-Glo, lipid micelle substrate), DGKζ; conditions: 1 hour preincubation, 1 hour reaction, room temperature
T1 construct: His (N); TEV site (N); made in house; host or cells: Sf9 insect cells (Bac-to-Bac baculovirus)
Summary of the method: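 Full-length human DGKζ (M1-V929, His-TEV tagged, Sf9 baculovirus-expressed) with DAG/PS lipid micelle substrate in octyl glucoside, at room temperature in 50 mM HEPES, 10 mM MgCl2, 0.01 mM CaCl2 buffer.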

[2] = molecular target: T2, Full length DGKα (D21-10BG, SignalChem) (Homo sapiens, UniProt P23743); assay: Biochemical DGK IC50 assay (ADP-Glo, lipid micelle substrate), DGKα; conditions: 1 hour preincubation, 1 hour reaction, room temperature
T2 construct: Full length DGKα (D21-10BG, SignalChem); purchased SignalChem D21-10BG
T2 sequence (P23743 whole entry): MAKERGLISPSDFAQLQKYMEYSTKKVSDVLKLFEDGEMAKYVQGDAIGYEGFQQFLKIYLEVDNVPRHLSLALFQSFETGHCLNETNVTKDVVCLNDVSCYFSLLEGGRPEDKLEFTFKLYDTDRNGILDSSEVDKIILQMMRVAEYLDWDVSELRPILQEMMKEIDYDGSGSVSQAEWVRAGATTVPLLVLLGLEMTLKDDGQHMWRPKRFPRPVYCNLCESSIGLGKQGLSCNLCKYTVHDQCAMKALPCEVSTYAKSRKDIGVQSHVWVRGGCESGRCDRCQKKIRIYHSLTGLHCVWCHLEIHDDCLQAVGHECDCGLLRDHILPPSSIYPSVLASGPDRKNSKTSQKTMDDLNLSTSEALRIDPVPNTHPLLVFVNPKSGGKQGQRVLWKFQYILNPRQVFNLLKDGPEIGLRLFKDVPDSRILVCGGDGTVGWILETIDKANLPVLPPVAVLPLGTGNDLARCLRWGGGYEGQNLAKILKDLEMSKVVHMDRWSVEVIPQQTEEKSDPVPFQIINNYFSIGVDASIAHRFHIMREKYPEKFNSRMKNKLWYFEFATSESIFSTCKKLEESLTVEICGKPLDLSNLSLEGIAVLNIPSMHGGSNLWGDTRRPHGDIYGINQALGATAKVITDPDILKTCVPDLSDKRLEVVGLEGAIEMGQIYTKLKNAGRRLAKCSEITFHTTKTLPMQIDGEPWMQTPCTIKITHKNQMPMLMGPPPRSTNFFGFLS
Summary of the method: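 Full-length human DGKα with DAG/PS lipid micelle substrate (in octyl glucoside buffer), reacted 1 h at room temperature in 50 mM HEPES, 10 mM MgCl2, 0.01 mM CaCl2, 0.1 mM Na3VO4, 0.01% BSA, 0.005% Tween-20. ADP formed read by ADP-Glo luminescence; IC50 from inhibition across increasing compound concentrations.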

T1 sequence (Q13574 1-929 isoform Q13574-4): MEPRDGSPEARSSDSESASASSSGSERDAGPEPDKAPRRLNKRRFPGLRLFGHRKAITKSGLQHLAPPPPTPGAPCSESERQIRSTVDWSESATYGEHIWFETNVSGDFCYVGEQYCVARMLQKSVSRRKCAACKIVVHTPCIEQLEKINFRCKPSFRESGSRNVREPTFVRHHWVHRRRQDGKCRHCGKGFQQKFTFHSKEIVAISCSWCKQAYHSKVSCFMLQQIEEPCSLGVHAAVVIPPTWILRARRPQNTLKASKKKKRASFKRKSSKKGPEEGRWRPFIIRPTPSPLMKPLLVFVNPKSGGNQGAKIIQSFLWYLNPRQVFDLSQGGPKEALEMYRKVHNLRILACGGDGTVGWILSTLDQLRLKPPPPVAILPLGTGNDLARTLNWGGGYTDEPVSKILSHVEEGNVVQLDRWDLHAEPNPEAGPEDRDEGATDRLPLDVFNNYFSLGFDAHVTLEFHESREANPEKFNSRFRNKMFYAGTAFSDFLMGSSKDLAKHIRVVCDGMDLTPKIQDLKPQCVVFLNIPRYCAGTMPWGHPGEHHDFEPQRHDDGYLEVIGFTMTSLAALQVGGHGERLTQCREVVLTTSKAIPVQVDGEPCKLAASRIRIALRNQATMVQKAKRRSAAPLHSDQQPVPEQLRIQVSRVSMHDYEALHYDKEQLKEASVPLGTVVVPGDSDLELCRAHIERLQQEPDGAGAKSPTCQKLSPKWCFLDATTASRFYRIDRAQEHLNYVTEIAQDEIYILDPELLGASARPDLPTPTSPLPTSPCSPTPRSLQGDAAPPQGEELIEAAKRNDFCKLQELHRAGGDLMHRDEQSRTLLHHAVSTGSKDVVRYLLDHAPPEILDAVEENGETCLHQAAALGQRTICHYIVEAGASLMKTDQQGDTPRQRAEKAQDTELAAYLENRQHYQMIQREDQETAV

Row | Compound | IC50 [1] [nM] | IC50 [2] [nM]
1 | CCn1c(CC#N)nc2c(N3C[C@@H](C)N(C(C)c4ccc5c(c4)C(=O)N(C(C)C)C5=O)C[C@@H]3C)nc(=O)n(C)c21 (stereo partly drawn) [Compound A178, 2-(9-ethyl-6-((2S,5R)-4-(1-(2-isopropyl-1,3-dioxoisoindolin-5-yl)ethyl)-2,5-dimethylpiperazin-1-yl)-3-methyl-2-oxo-3,9-dihydro-2H-purin-8-yl)acetonitrile] | 15 | 92400
2 | CC(c1ccc(F)cc1C(F)(F)F)N1C[C@H](C)N(c2cc(=O)n(C)c3[nH]c(CC#N)nc23)C[C@H]1C (single isomer, unassigned) [Compound A9b] | 169 | > 10000
3 | CCn1c(CC#N)nc2c(N3C[C@@H](C)N(C(C)c4cccc(C(C)C)c4)C[C@@H]3C)nc(=O)n(C)c21 (single isomer, unassigned) [Compound A108b] | 822 | 95800
4 | CC(OC(F)F)c1cc(F)ccc1C(C)N1C[C@H](C)N(c2nc(=O)n(C)c3c2nc(CC#N)n3C)C[C@H]1C (single isomer, unassigned) [Compound A29a] | 437 | > 150000
5 | CC(c1ccc2c(c1)OC(C)(C)CO2)N1C[C@H](C)N(c2nc(=O)n(C)c3c2nc(CC#N)n3CC(F)F)C[C@H]1C (stereo partly drawn) [Compound A87, 2-(9-(2,2-difluoroethyl)-6-((2S,5R)-4-(1-(3,3-dimethyl-2,3-dihydrobenzo[b][1,4]dioxin-6-yl)ethyl)-2,5-dimethylpiperazin-1-yl)-3-methyl-2-oxo-3,9-dihydro-2H-purin-8-yl)acetonitrile] | 2 | 21900
6 | CC(c1ccc2c(c1)OC(C)(C)O2)N1C[C@H](C)N(c2nc(=O)n(C)c3c2nc(CC#N)n3C)C[C@H]1C (single isomer, unassigned) [Compound A98a] | 5 | 14300
7 | CC(c1ccc(F)cc1C(F)(F)F)N1C[C@H](C)N(c2nc(=O)n(C)c3c2nc(CC#N)n3C)C[C@H]1C (single isomer, unassigned) [Compound A33a] | 804 | > 10000
8 | CCn1c(CC#N)nc2c(N3C[C@@H](C)N(C(C)c4ccc5c(c4)OC4(CCC4)O5)C[C@@H]3C)nc(=O)n(C)c21 (single isomer, unassigned) [Compound A169b] | 455 | 78200
9 | COC[C@H]1CN(C(C)c2ccc3c(c2)OCCO3)[C@H](C)CN1c1nc(=O)n(C)c2c1nc(CC#N)n2C (single isomer, unassigned) [Compound A11a] | 764 | 57800
10 | CCn1c(CC#N)nc2c(N3C[C@@H](C)N(C(C)c4ccc(C(F)(F)F)c(C)c4)C[C@@H]3C)nc(=O)n(C)c21 (stereo partly drawn) [Compound A137, 2-(6-((2S,5R)-2,5-dimethyl-4-(1-(3-methyl-4-(trifluoromethyl)phenyl)ethyl)piperazin-1-yl)-9-ethyl-3-methyl-2-oxo-3,9-dihydro-2H-purin-8-yl)acetonitrile] | 64 | 48700
11 | Cc1ccc(C(C)N2C[C@H](C)N(c3c(F)c(=O)n(C)c4c3nc(CC#N)n4C)C[C@H]2C)c(C(F)(F)F)c1 (single isomer, unassigned) [Compound A15a] | 1410 | > 10000
12 | CCn1c(CC#N)nc2c(N3C[C@@H](C)N(C(C)c4ccc5c(n4)C(F)(F)CCO5)C[C@@H]3C)nc(=O)n(C)c21 (stereo partly drawn) [Compound A102, 2-(6-((2S,5R)-4-(1-(4,4-difluoro-3,4-dihydro-2H-pyrano[3,2-b]pyridin-6-yl)ethyl)-2,5-dimethylpiperazin-1-yl)-9-ethyl-3-methyl-2-oxo-3,9-dihydro-2H-purin-8-yl)acetonitrile] | 37 | > 150000
13 | CCn1c(CC#N)nc2c(N3C[C@@H](C)N(C(C)c4ccc5c(c4)OC(C)(C)CC5=O)C[C@@H]3C)nc(=O)n(C)c21 (stereo partly drawn) [Compound A81, 2-(6-((2S,5R)-4-(1-(2,2-dimethyl-4-oxochroman-7-yl)ethyl)-2,5-dimethylpiperazin-1-yl)-9-ethyl-3-methyl-2-oxo-3,9-dihydro-2H-purin-8-yl)acetonitrile] | 7 | > 150000
14 | CCn1c(CC#N)nc2c(N3C[C@@H](C)N(C(C)c4ccc5c(n4)OC(C)(C)C5)C[C@@H]3C)nc(=O)n(C)c21 (stereo partly drawn) [Compound A180, 2-(6-((2S,5R)-4-(1-(2,2-dimethyl-2,3-dihydrofuro[2,3-b]pyridin-6-yl)ethyl)-2,5-dimethylpiperazin-1-yl)-9-ethyl-3-methyl-2-oxo-3,9-dihydro-2H-purin-8-yl)acetonitrile] | 4440 | > 150000
15 | CC[C@H]1CN(C(C)c2ccc3c(c2)OC(C)(C)CO3)[C@H](CC)CN1c1nc(=O)n(C)c2c1nc(CC#N)n2CC (stereo partly drawn) [Compound A67, 2-(6-((2S,5R)-4-(1-(3,3-dimethyl-2,3-dihydrobenzo[b][1,4]dioxin-6-yl)ethyl)-2,5-diethylpiperazin-1-yl)-9-ethyl-3-methyl-2-oxo-3,9-dihydro-2H-purin-8-yl)acetonitrile] | 10 | 118000
16 | COC[C@H]1CN(C(C)c2ccc3c(c2)OC(C)(C)CO3)[C@H](C)CN1c1nc(=O)n(C)c2c1nc(CC#N)n2C (single isomer, unassigned) [Compound A12b] | 57 | 27400
17 | CCn1c(CC#N)nc2c(N3C[C@@H](C)N(C(C)c4ccnc(C(=O)NC)c4)C[C@@H]3C)nc(=O)n(C)c21 (stereo partly drawn) [Compound A130, 4-(1-((2R,5S)-4-(8-(cyanomethyl)-9-ethyl-3-methyl-2-oxo-3,9-dihydro-2H-purin-6-yl)-2,5-dimethylpiperazin-1-yl)ethyl)-N-methylpicolinamide] | 3900 | > 150000
18 | CC(c1ccc2c(c1)OC(F)(F)C(F)(F)O2)N1C[C@H](C)N(c2nc(=O)n(C)c3c2nc(CC#N)n3C)C[C@H]1C (single isomer, unassigned) [Compound A79b] | 529 | 14800
19 | CCn1c(CC#N)nc2c(N3C[C@@H](C)N(C(C)c4cc(F)c5c(c4)OC(C)(C)O5)C[C@@H]3C)nc(=O)n(C)c21 (single isomer, unassigned) [Compound A173b] | 412 | 83300
20 | Cc1cnc2ccc(C(C)N3C[C@H](C)N(c4nc(=O)n(C)c5c4nc(CC#N)n5C)C[C@H]3C)cc2n1 (single isomer, unassigned) [Compound A49b] | 400 | > 150000
21 | CCn1c(CC#N)nc2c(N3C[C@@H](C)N(C(C)c4ccc5c(c4)C(C)(C)N(C)C5=O)C[C@@H]3C)nc(=O)n(C)c21 (stereo partly drawn) [Compound A84, 2-(6-((2S,5R)-2,5-dimethyl-4-(1-(2,3,3-trimethyl-1-oxoisoindolin-5-yl)ethyl)piperazin-1-yl)-9-ethyl-3-methyl-2-oxo-3,9-dihydro-2H-purin-8-yl)acetonitrile] | 232 | > 150000
22 | CCn1c(CC#N)nc2c(N3C[C@@H](C)N(C(C)c4cc(F)c5c(n4)OC(C)(C)CO5)C[C@@H]3C)nc(=O)n(C)c21 (single isomer, unassigned) [Compound A163b] | 2070 | > 150000
23 | CCn1c(CC#N)nc2c(N3C[C@@H](C)N(C(C)c4ccc5c(c4F)OC(C)(C)CO5)C[C@@H]3C)nc(=O)n(C)c21 (stereo partly drawn) [Compound A71, 2-(9-ethyl-6-((2S,5R)-4-(1-(5-fluoro-3,3-dimethyl-2,3-dihydrobenzo[b][1,4]dioxin-6-yl)ethyl)-2,5-dimethylpiperazin-1-yl)-3-methyl-2-oxo-3,9-dihydro-2H-purin-8-yl)acetonitrile] | 48 | 124000
24 | Cc1cnc2ccc(C(C)N3C[C@H](C)N(c4c(F)c(=O)n(C)c5c4nc(CC#N)n5C)C[C@H]3C)cc2n1 (single isomer, unassigned) [Compound A23b] | 94 | 16200
25 | CCn1c(CC#N)nc2c(N3C[C@@H](C)N(C(C)c4ccc(F)c5c4OC(C)(C)O5)C[C@@H]3C)nc(=O)n(C)c21 (single isomer, unassigned) [Compound A185b] | 20 | 82500
26 | CCn1c(CC#N)nc2c(N3C[C@@H](C)N(C(C)c4ccc5c(c4F)OC(C)(C)O5)C[C@@H]3C)c(F)c(=O)n(C)c21 (mixture of isomers) [Compound A190, 2-(3-ethyl-6-fluoro-7-((2S,5R)-4-(1-(4-fluoro-2,2-dimethylbenzo[d][1,3]dioxol-5-yl)ethyl)-2,5-dimethylpiperazin-1-yl)-4-methyl-5-oxo-4,5-dihydro-3H-imidazo[4,5-b]pyridin-2-yl)acetonitrile] | 13 | 106000
27 | CCn1c(CC#N)nc2c(N3C[C@@H](C)N(C(C)c4cc5c(cc4F)OC(C)(C)O5)C[C@@H]3C)nc(=O)n(C)c21 (single isomer, unassigned) [Compound A174a] | 1030 | 51200
28 | CC(c1ccc2nccnc2c1)N1C[C@H](C)N(c2c(F)c(=O)n(C)c3c2nc(CC#N)n3C)C[C@H]1C (single isomer, unassigned) [Compound A22a] | 26 | > 10000
29 | CCn1c(=O)nc(N2C[C@@H](C)N(C(C)c3ccc4c(c3)OC(C)(C)CO4)C[C@@H]2C)c2nc(CC#N)n(C)c21 (single isomer, unassigned) [Compound A61b] | 420 | 37900
30 | CC(c1ccc2c(c1)OC(C)(C)O2)N1C[C@H](C)N(c2nc(=O)n(C)c3c2nc(CC#N)n3C)C[C@H]1C (stereo partly drawn) [Compound A98, 2-(6-((2S,5R)-4-(1-(2,2-dimethylbenzo[d][1,3]dioxol-5-yl)ethyl)-2,5-dimethylpiperazin-1-yl)-3,9-dimethyl-2-oxo-3,9-dihydro-2H-purin-8-yl)acetonitrile] | 5 | 11600
